Source: the CheMixHub viscosity set
Where “and” joins values, the source holds several entries; their conditions need not be identical. Identical values can stand only once. ± gives the uncertainty stated by the source.

Assay: xn = mol fraction of the nth substance listed

NCCO + O
viscosity (293.15 K, 100 kPa, x2 = 0.46): 21.2 ± 0.4 mPa·s | viscosity (293.15 K, 101 kPa, x1 = 0.03289): 1.389 ± 0.012 mPa·s | viscosity (293.15 K, 101 kPa, x1 = 0.06899): 1.903 ± 0.016 mPa·s | viscosity (293.15 K, 101 kPa, x1 = 0.069): 1.88 ± 0.017 mPa·s | viscosity (293.15 K, 101 kPa, x1 = 0.0699): 1.953 ± 0.029 mPa·s | viscosity (293.15 K, 101 kPa, x1 = 0.1124): 3.125 ± 0.026 mPa·s | viscosity (293.15 K, 101 kPa, x1 = 0.1654): 4.243 ± 0.064 mPa·s | viscosity (293.15 K, 101 kPa, x1 = 0.23): 6.17 ± 0.076 mPa·s | viscosity (293.15 K, 101 kPa, x1 = 0.3043): 9.893 ± 0.13 mPa·s | viscosity (293.15 K, 101 kPa, x1 = 0.47): 16.6 ± 0.23 mPa·s | viscosity (293.15 K, 101 kPa, x1 = 0.6204): 23.11 ± 0.35 mPa·s | viscosity (293.15 K, 101 kPa, x1 = 0.803): 25.85 ± 0.47 mPa·s | viscosity (293.15 K, 101 kPa, x2 = 0.84): 4.64 ± 1.4 mPa·s | viscosity (293.15 K, 101 kPa, x2 = 0.93): 2.002 ± 0.6 mPa·s | viscosity (293.15 K, 101.3 kPa, x1 = 0.07): 2.005 ± 0.079 mPa·s | viscosity (293.15 K, 101.3 kPa, x1 = 0.2): 4.667 ± 0.19 mPa·s and 7.345 ± 0.32 mPa·s | viscosity (293.15 K, 101.3 kPa, x1 = 0.3): 11.29 ± 0.4 mPa·s | viscosity (293.15 K, 101.3 kPa, x1 = 0.4): 15.77 ± 0.56 mPa·s | viscosity (293.15 K, 101.3 kPa, x1 = 0.5): 21 ± 0.69 mPa·s | viscosity (293.15 K, 101.3 kPa, x1 = 0.7): 24.02 ± 0.75 mPa·s | viscosity (298.14 K, 100 kPa, x1 = 0.112): 2.464 ± 0.1 mPa·s | viscosity (298.15 K, 100 kPa, x1 = 0.069): 1.621 ± 0.057 mPa·s | viscosity (298.15 K, 100 kPa, x1 = 0.11): 2.415 ± 0.059 mPa·s | viscosity (298.15 K, 100 kPa, x1 = 0.112): 2.467 ± 0.1 mPa·s and 2.464 ± 0.26 mPa·s | viscosity (298.15 K, 101 kPa, x1 = 0.03289): 1.224 ± 0.01 mPa·s | viscosity (298.15 K, 101 kPa, x1 = 0.06899): 1.689 ± 0.014 mPa·s | viscosity (298.15 K, 101 kPa, x1 = 0.1121): 2.44 ± 0.73 mPa·s | viscosity (298.15 K, 101 kPa, x1 = 0.1122): 2.54 ± 0.06 mPa·s | viscosity (298.15 K, 101 kPa, x1 = 0.1124): 2.714 ± 0.023 mPa·s | viscosity (298.15 K, 101 kPa, x1 = 0.1422): 3.11 ± 0.94 mPa·s | viscosity (298.15 K, 101 kPa, x2 = 0.84): 3.41 ± 0.03 mPa·s and 3.76 ± 1.1 mPa·s | viscosity (298.15 K, 101 kPa, x2 = 0.8878): 2.52 ± 0.02 mPa·s | viscosity (298.15 K, 101 kPa, x2 = 0.89): 2.46 ± 0.74 mPa·s | viscosity (298.15 K, 101.3 kPa, x1 = 0.03): 1.299 ± 0.05 mPa·s | viscosity (298.15 K, 101.3 kPa, x1 = 0.1): 2.489 ± 0.082 mPa·s | viscosity (298.15 K, 101.3 kPa, x1 = 0.2): 3.765 ± 0.13 mPa·s and 5.547 ± 0.2 mPa·s | viscosity (298.15 K, 101.3 kPa, x1 = 0.3): 9.062 ± 0.32 mPa·s | viscosity (298.15 K, 101.3 kPa, x1 = 0.4): 12.6 ± 0.45 mPa·s | viscosity (298.15 K, 101.3 kPa, x1 = 0.5): 16.29 ± 0.61 mPa·s | viscosity (298.15 K, 101.3 kPa, x1 = 0.7): 19.9 ± 0.71 mPa·s | viscosity (303.15 K, 100 kPa, x1 = 0.1): 1.91 ± 0.03 mPa·s | viscosity (303.15 K, 100 kPa, x1 = 0.2): 3.87 ± 0.07 mPa·s | viscosity (303.15 K, 100 kPa, x1 = 0.3): 6.67 ± 0.12 mPa·s | viscosity (303.15 K, 100 kPa, x1 = 0.4): 9.68 ± 0.17 mPa·s | viscosity (303.15 K, 100 kPa, x1 = 0.5): 12.3 ± 0.2 mPa·s | viscosity (303.15 K, 100 kPa, x1 = 0.6): 14 ± 0.3 mPa·s | viscosity (303.15 K, 100 kPa, x2 = 0.46): 13.1 ± 0.2 mPa·s | viscosity (303.15 K, 101 kPa, x1 = 0.03289): 1.087 ± 0.009 mPa·s | viscosity (303.15 K, 101 kPa, x1 = 0.06899): 1.482 ± 0.012 mPa·s | viscosity (303.15 K, 101 kPa, x1 = 0.0699): 1.477 ± 0.02 mPa·s and 1.177 ± 0.016 mPa·s | viscosity (303.15 K, 101 kPa, x1 = 0.1122): 2.19 ± 0.05 mPa·s | viscosity (303.15 K, 101 kPa, x1 = 0.1124): 2.397 ± 0.02 mPa·s | viscosity (303.15 K, 101 kPa, x1 = 0.1422): 2.65 ± 0.8 mPa·s | viscosity (303.15 K, 101 kPa, x1 = 0.1654): 3.059 ± 0.043 mPa·s | viscosity (303.15 K, 101 kPa, x1 = 0.3043): 6.608 ± 0.095 mPa·s | viscosity (303.15 K, 101 kPa, x1 = 0.6204): 13.65 ± 0.21 mPa·s | viscosity (303.15 K, 101 kPa, x1 = 0.803): 15.72 ± 0.31 mPa·s | viscosity (303.15 K, 101 kPa, x2 = 0.84): 3.27 ± 0.98 mPa·s | viscosity (303.15 K, 101 kPa, x2 = 0.93): 1.496 ± 0.45 mPa·s | viscosity (303.15 K, 101.3 kPa, x1 = 0.03): 1.121 ± 0.046 mPa·s | viscosity (303.15 K, 101.3 kPa, x1 = 0.07): 1.501 ± 0.054 mPa·s | viscosity (303.15 K, 101.3 kPa, x1 = 0.1): 2.195 ± 0.071 mPa·s | viscosity (303.15 K, 101.3 kPa, x1 = 0.2): 3.279 ± 0.1 mPa·s and 4.96 ± 0.15 mPa·s | viscosity (303.15 K, 101.3 kPa, x1 = 0.3): 7.417 ± 0.23 mPa·s | viscosity (303.15 K, 101.3 kPa, x1 = 0.4): 10.31 ± 0.33 mPa·s | viscosity (303.15 K, 101.3 kPa, x1 = 0.5): 13.15 ± 0.42 mPa·s | viscosity (308.15 K, 101 kPa, x1 = 0.03289): 0.973 ± 0.008 mPa·s | viscosity (308.15 K, 101 kPa, x1 = 0.06899): 1.31 ± 0.011 mPa·s | viscosity (308.15 K, 101 kPa, x1 = 0.1124): 2.143 ± 0.018 mPa·s | viscosity (313 K, 101 kPa, x1 = 0.11): 1.57 ± 0.02 mPa·s | viscosity (313.15 K, 100 kPa, x1 = 0.1): 1.48 ± 0.03 mPa·s | viscosity (313.15 K, 100 kPa, x2 = 0.46): 8.59 ± 0.14 mPa·s | viscosity (313.15 K, 101 kPa, x1 = 0.03289): 0.878 ± 0.007 mPa·s | viscosity (313.15 K, 101 kPa, x1 = 0.11): 1.66 ± 0.07 mPa·s | viscosity (313.15 K, 101 kPa, x1 = 0.1124): 1.95 ± 0.017 mPa·s | viscosity (313.15 K, 101 kPa, x1 = 0.1422): 1.99 ± 0.6 mPa·s | viscosity (313.15 K, 101 kPa, x1 = 0.3043): 4.654 ± 0.066 mPa·s | viscosity (313.15 K, 101 kPa, x1 = 0.803): 10.54 ± 0.15 mPa·s | viscosity (313.15 K, 101 kPa, x2 = 0.84): 2.3 ± 0.69 mPa·s | viscosity (313.15 K, 101 kPa, x2 = 0.93): 1.163 ± 0.35 mPa·s | viscosity (313.15 K, 101.3 kPa, x1 = 0.03): 0.909 ± 0.042 mPa·s | viscosity (313.15 K, 101.3 kPa, x1 = 0.2): 3.423 ± 0.11 mPa·s | viscosity (313.15 K, 101.3 kPa, x1 = 0.3): 5.291 ± 0.17 mPa·s | viscosity (313.15 K, 101.3 kPa, x1 = 0.4): 7.024 ± 0.23 mPa·s | viscosity (313.15 K, 101.3 kPa, x1 = 0.5): 8.95 ± 0.3 mPa·s | viscosity (318.15 K, 101 kPa, x1 = 0.03289): 0.798 ± 0.007 mPa·s | viscosity (318.15 K, 101 kPa, x1 = 0.06899): 1.048 ± 0.009 mPa·s | viscosity (323 K, 101 kPa, x1 = 0.11): 1.22 ± 0.02 mPa·s | viscosity (323.15 K, 100 kPa, x2 = 0.46): 5.92 ± 0.1 mPa·s | viscosity (323.15 K, 101 kPa, x1 = 0.03289): 0.731 ± 0.006 mPa·s | viscosity (323.15 K, 101 kPa, x1 = 0.06899): 0.948 ± 0.008 mPa·s | viscosity (323.15 K, 101 kPa, x1 = 0.069): 0.94 ± 0.009 mPa·s | viscosity (323.15 K, 101 kPa, x1 = 0.0699): 0.973 ± 0.013 mPa·s | viscosity (323.15 K, 101 kPa, x1 = 0.1654): 1.76 ± 0.023 mPa·s | viscosity (323.15 K, 101 kPa, x1 = 0.23): 2.57 ± 0.032 mPa·s | viscosity (323.15 K, 101 kPa, x1 = 0.3043): 3.401 ± 0.05 mPa·s | viscosity (323.15 K, 101 kPa, x1 = 0.47): 5.37 ± 0.09 mPa·s | viscosity (323.15 K, 101 kPa, x1 = 0.6204): 6.592 ± 0.1 mPa·s | viscosity (323.15 K, 101 kPa, x1 = 0.803): 7.219 ± 0.11 mPa·s | viscosity (323.15 K, 101 kPa, x2 = 0.84): 1.78 ± 0.53 mPa·s | viscosity (323.15 K, 101 kPa, x2 = 0.89): 1.23 ± 0.37 mPa·s | viscosity (323.15 K, 101 kPa, x2 = 0.93): 0.942 ± 0.28 mPa·s | viscosity (323.15 K, 101.3 kPa, x1 = 0.03): 0.715 ± 0.038 mPa·s | viscosity (323.15 K, 101.3 kPa, x1 = 0.07): 0.945 ± 0.042 mPa·s | viscosity (323.15 K, 101.3 kPa, x1 = 0.1): 1.338 ± 0.05 mPa·s | viscosity (323.15 K, 101.3 kPa, x1 = 0.2): 1.782 ± 0.06 mPa·s and 2.566 ± 0.08 mPa·s | viscosity (323.15 K, 101.3 kPa, x1 = 0.3): 3.771 ± 0.12 mPa·s | viscosity (323.15 K, 101.3 kPa, x1 = 0.4): 5.055 ± 0.16 mPa·s | viscosity (323.15 K, 101.3 kPa, x1 = 0.5): 6.273 ± 0.2 mPa·s | viscosity (323.15 K, 101.3 kPa, x1 = 0.7): 7.09 ± 0.23 mPa·s
